Laboratory results taken from BindingDB's records for doi:10.1016/s0960-894x(00)00323-1 (The University of Newcastle, 2000).
pIC50: −log10 of the molar value.

Target: Protein phosphatase 1 catalytic subunit (PP1)
Experiment: Inhibitory activity against recombinant Protein phosphatase 1

| Compound | pIC50 |
| --- | --- |
| COC1OC(=O)[C@H]2[C@@H]1[C@@H]1CC[C@H]2O1 (stereo partly drawn) [(1R,2S,6R,7S)-5-Methoxy-4,10-dioxa-tricyclo[5.2.1.0*2,6*]decan-3-one] | < 3.00 |
| CCOC(=O)C1C(C(=O)O)[C@@H]2CC[C@H]1O2 (stereo partly drawn) [(1R,4S)-7-Oxa-bicyclo[2.2.1]heptane-2,3-dicarboxylic acid monoethyl ester] | 5.53 |
